Assay results: patent US20250262139A1, “POLYPEPTIDES AND METHODS FOR IMPROVING SKIN CONDITIONS” (INTERK PEPTIDE THERAPEUTICS LIMITED, priority 2020, published 2025)
“Also recorded” adds a separate entry of the source. Where no end group is shown, it is not given here. [ ]: non-standard residue; d: D form.

How the values were obtained:
[1] = tested on: ICR mice, punch skin wound; assay: murine wound model, wound closure; assay type: in vivo; conditions: topical 10 μg per mouse daily for 10 consecutive days
Excerpt: FIGS. 1 and 2 illustrate the effect of polypeptides IK34720 (SEQ ID NO: 3—RSKAKNPLYRRRRRRRRR) (FIG. 1) and the dextro-reverso sequence IK236770 (SEQ ID NO: 4—rrrrrrrrrylpnkaksr) (FIG. 2), on wound healing over 10 days in a murine wound model in accordance with the following protocol.
Three groups of 8 male ICR mice with a mean weight of 22 g (+2 g) were used in the present study. The animals were housed in individual cages during the study. Under isoflurane gas anaesthesia, the shoulder and back region of each animal was shaved and a sharp punch (ID 12 mm) was used to induce a wound by removing the skin, including panniculus carnosus and adherent tissues on Day 1.
Following induction of the wound the polypeptides IK34720 and IK236770 were topically administered to the site of the wound at a dosage of 10 μg per animal. […] An additional group which comprised the administration of Phosphate buffered Saline (PBS) at pH 7.4 was used as a negative control.
The wound healing was analysed on Days 5, 7, 9 and 11 by tracing the periphery of the wound onto clear plastic sheets with the wound area calculated by an Image analyzer ProPlus (Media Cybernetics, Version 4.5.0.29. The percentage closure of the wound (%) was calculated. Percentage closure of the wound was determined on 5, 7, 9 and 11. ANOVA and Dunnett's test were applied to test significant significance between the treated groups (peptide and positive control groups) and the negative control group at each time point of measurement. Differences were considered statistically significant at P<0.05, and are indicated by *.

human skin explants = assay: CPD formation in UV-irradiated human skin explants; assay type: cell-based; conditions: 3 hrs post irradiation/treatment; Calcitriol 1 nM; IK34720 50, 250 or 500 μM
Procedure: Human skin removed at elective surgery was cleaned, dissected and cut into pieces of approx. 5 mm×5 mm. Each piece was placed in a well of a 96 well plate, with individual plates prepared to assess the effects 3 hrs post treatment. All samples were performed in triplicate for each treatment. Skin was subjected to UV-radiation from solar-simulated UV source for 1.5 h (UVR), or non-irradiation (SHAM). Given that human skin is thicker than mouse skin, human skin explants were exposed to a radiation dose three times higher than that used for mouse skin, i.e., 20 J/cm2 versus 7 J/cm^2, respectively, and the output spectrum of the laboratory solar simulator has previously been reported (Rybchyn M S et al, J Invest Dermatol. 2018 May; 138 (5): 1146-1156) and treated immediately after with a vehicle control, Calcitriol (1 nM) or the polypeptide IK34720 (SEQ ID NO: 3) at concentrations of 50 μM, 250 μM or 500 μM.
Samples harvested at 3 hrs were fixed, section, stained and quantified as described in Example 5.

MMP1 = MMP1 immunohistochemical staining in UV-irradiated human skin explants; assay type: cell-based; conditions: 3 hrs post irradiation/treatment; Calcitriol 1 nM; IK34720 50, 250 or 500 μM
Procedure: Human skin (2×human explant tissues) removed at elective surgery was cleaned, dissected and cut into pieces of approx. 5 mm×5 mm. Each piece was placed in a well of a 96 well plate, with individual plates prepared to assess the effects 3 hrs post treatment. Skin was subjected to UV-radiation from solar-simulated UV source for 1.5 h (UVR), or non-irradiation (SHAM), and treated immediately after with a vehicle control, Calcitriol (1 nM) or the polypeptide IK34720 (SEQ ID NO: 3) at concentrations of 50 μM, 250 μM or 500 μM. In FIG. 17, IK50, IK250 and IK500 as μM concentrations refers to 15 μg, 75 μg and 150 μg of IK34720 per 120 μL culture medium/explant, respectively.
Samples harvested at 3 hrs were fixed, sectioned, immunohistochemically stained for MMP1 and quantified for MMP1 expression, by expressing epidermal area stained for MMP1 as a function of total epidermal area examined.

dermal fibroblasts = assay: TBARS lipid peroxidation assay, UV-irradiated dermal fibroblasts; assay type: cell-based; conditions: IK-3 at the highest concentration (5 μM); 1,25D
Procedure: The ability of the polypeptide RSKAKNPLYRRRRRRRRR to alter UV-induced oxidative damage of cell-derived lipids was examined using the TBARS thiobarbituric acid-reactive substances (TBARS) lipid peroxidation assay.
After irradiation or sham-irradiation of dermal fibroblasts, supernatants (900 μL) were collected. In brief, 90 μL of butylated hydroxytoluene (2% w/w in ethanol) was added and samples kept frozen (−20° C.) until the TBARS assay. Petri dishes were washed twice with 1 mL of HBSS, cells scraped in 600 μL of water and 60 μL of 0.5% aqueous Triton X100 added to this solution, for protein determination carried out by the Lowry method (Lowry O H et al, J. Biol. Chem., 1951, 193:265-275). TBARS were fluorometrically assayed as described (Morlière P et al, Biochim. Biophys. Acta, 1991, 1084:261-268). Briefly, thawing samples were heated in the presence of thiobarbituric acid in acidic conditions, and TBARS extracted with 1-butanol and fluorometrically quantified (λexc=515 nm and Aem=550 nm). Tetraethoxypropane, which quantitatively yields the malondialdehyde-thiobarbituric acid adduct in the assay conditions, was used for calibration. TBARS values, expressed in malondialdehyde (MDA) equivalents, were normalized to the cell protein for each Petri dish. Each TBARS determination was performed in triplicate (e.g., with three Petri dishes per data point).

primary keratinocytes = assay: CPD detection by IHC in keratinocytes 3 h following UV-irradiation; assay type: cell-based; conditions: 5 μM after ssUV; fixed 3 h after UV
Procedure: An in vitro assay was conducted allowing for densitometry analysis of CPD detection by IHC in keratinocytes 3 h following UV-irradiation in accordance with the following protocol.
Keratinocytes were harvested and cultured as described above at Example 2. Samples were split into two groups, being UV irradiated (UVR) and non-UV irradiated (SHAM). UV-irradiation was performed by solar simulated UV-irradiation for cells, also as described above at Example 2. Irradiation solution was PBS containing 5 mM D-glucose. […]
Harvested keratinocytes were plated on poly-D-lysine coated coverslips in 96 well plates and irradiated (or sham treated) as described above in at Example 2 in PBS containing 5 mM D-glucose. Keratinocytes were fixed 3 h after UV-irradiation. Immunohistochemistry and image analysis were performed as described previously (Gordon-Thomson et al., Photochem Photobiol Sci, 2012, 11 (12): 1837-47; Gupta et al., vide supra, Rybchyn M S et al., J Invest Dermatol, 2018; 138 (5): 1146-1156). Thymine dimers were detected using the anti-thymine dimer antibody (Sigma-Aldrich, Missouri, USA) at 10 μg/mL, and quantified as an index of CPD, as previously described (Douki T and Cadet J, Biochemistry, 2001, 40 (8): 2495-501).
Following irradiation, keratinocytes were treated with either Calcitriol, vehicle control (Veh) or the polypeptide IK34720 (SEQ ID NO: 3; “IK”) IK14800; (RSKAKNPLYRRRRRRRRR), RSKAKNPLY (IK94000) and RRRRRRRRR (IK00900), at concentrations of 5 μM.

[2] = biological target: T1, polypeptide IK34720 (RSKAKNPLYRRRRRRRRR)
T1 chain: RSKAKNPLYRRRRRRRRR

**Q.** With CCNC(=O)[C@H]1O[C@@H](n2cnc3c(N)nc(NCCc4ccc(CCC(=O)O)cc4)nc32)[C@H](O)[C@@H]1O [CGS-21680, reference compound] as the molecule, how does the wound closure percentage ([1]; Day 5 to Day 11, vs negative control (PBS)) read?
**A.** increase wound healing

**Q.** Which “cells stained for CPDs” value (human skin explants) does the source give for C=C1/C(=C\C=C2/CCC[C@]3(C)[C@@H]([C@H](C)CCCC(C)(C)O)CC[C@@H]23)C[C@@H](O)C[C@@H]1O [Calcitriol, 1,25-dihydroxyvitamin D3, reference compound] here?
**A.** fewer stained cells

**Q.** What about the “cells staining for MMP-1” value (MMP1) of the same molecule?
**A.** fewer stained cells

**Q.** And the “significant difference in TRS (TBA reactive substances) between Sham and UV irradiation” value (dermal fibroblasts)?
**A.** not seen

**Q.** Which results are given for RRRRRRRRR [IK00900]?
**A.** CPD levels compared to vehicle-treated UV-irradiated keratinocytes (primary keratinocytes): decrease CPD levels; also recorded: statistically significant (*p<0.05) reduction in CPD levels; reduction in CPD levels compared to Calcitriol (primary keratinocytes): comparable reduction in CPD levels to keratinocytes treated with Calcitriol

**Q.** “RSKAKNPLY (not fully specified (some residues)) [IK94000]” was tested. Which “CPD levels compared to vehicle-treated UV-irradiated keratinocytes” value (primary keratinocytes) did it give?
**A.** decrease CPD levels; also recorded: statistically significant (*p<0.05) reduction in CPD levels

**Q.** What about the “reduction in CPD levels compared to Calcitriol” value (primary keratinocytes) of the same molecule?
**A.** comparable reduction in CPD levels to keratinocytes treated with Calcitriol

**Q.** “rrrrrrrrrylpnkaksr ([dR][dR][dR][dR][dR][dR][dR][dR][dR][dY][dL][dP][dN][dK][dA][dK][dS][dR]) [IK236770]” was tested. Which “wound healing (wound closure % percentage)” value ([1]; day 5, vs negative control) did it give?
**A.** statistically significant increase in wound healing

B1: Human rheumatoid synovial fibroblast MMP-1 proenzyme, activated with APMA (protein)
chain: FVLTEGNPRWEQTHLTYRIENYTPDLPRADVDHAIEKAFQLWSNVTPLTFTKVSEGQADIMISFVRGDHRDNSPFDGPGGNLAHAFQPGPGIGGDAHFDEDERWTNNFREYNLHRVAAHELGHSLGLSHSTDIGALMYPSYTFSGDVQLAQDDIDGIQAIYGRSQNPVQPIGPQTPKACDSKLTFDAITTIRGEVMFFKDRFYMRTNPFYPEVELNFISVFWPQLPNGLEAAYEFADRDEVRFFKGNKYWAVQGQNVLHGYPKDIYSSFGFPRTVKHIDAALSEENTGKTYFFVANKYWRYDEYKRSMDPGYPKMIAHDFPGIGHKVDAVFMKDGFFYFFHGTRQYKFDPKTKRILTLQKANSWFNCRKN
**Q.** B1 was tested. Which “MMP-1 enzyme activity in vitro (fluorimetric cleavage of Mca-Pro-Leu-Gly-Leu-Dap-Ala-Arg; peptide at 5, 10, 800 and 1000 uM pre-incubated with 8 nM activated enzyme)” value [2] did it give?
**A.** inhibits MMP-1 activation in a dose dependent manner
